Laboratory results reported in PubChem BioAssay (NCI).
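Cells were grown in 96-well plates and exposed to each compound for 48 hours at five concentrations; endpoints were interpolated linearly between bracketing concentrations, or set to the highest concentration if not reached. The concentration for 50% growth inhibition is given as GI50. TGI denotes the concentration required for complete inhibition of growth.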

Tests used:
Assay in all cases: growth of human tumour cells (NCI), 48 h
PC-3 prostate = system: PC-3 prostate
SF-539 CNS = system: SF-539 CNS
HS 578T breast = system: HS 578T breast
NCI-H23 lung = system: NCI-H23 lung
SK-MEL-28 melanoma = system: SK-MEL-28 melanoma
NCI-H226 lung = system: NCI-H226 lung
HT29 colon = system: HT29 colon
COLO 205 colon = system: COLO 205 colon
786-0 renal = system: 786-0 renal
SK-MEL-2 melanoma = system: SK-MEL-2 melanoma
A498 renal = system: A498 renal
SN12C renal = system: SN12C renal
SK-OV-3 ovarian = system: SK-OV-3 ovarian
HL-60(TB) leukemia = system: HL-60(TB) leukemia
U251 CNS = system: U251 CNS
HOP-92 NSCLC = system: HOP-92 NSCLC
DU-145 prostate = system: DU-145 prostate
EKVX NSCLC = system: EKVX NSCLC
MOLT-4 leukemia = system: MOLT-4 leukemia
SNB-75 CNS = system: SNB-75 CNS
IGROV1 ovarian = system: IGROV1 ovarian
SNB-19 CNS = system: SNB-19 CNS
HOP-62 NSCLC = system: HOP-62 NSCLC
MCF7 breast = system: MCF7 breast
ACHN renal = system: ACHN renal
NCI-H460 lung = system: NCI-H460 lung
CCRF-CEM leukemia = system: CCRF-CEM leukemia
CAKI-1 renal = system: CAKI-1 renal
SF-268 CNS = system: SF-268 CNS

SMILES: COC(=O)[C@@]1(O)C[C@H]2O[C@]1(C)n1c3ccccc3c3c4c(c5c6ccccc6n2c5c31)C(=O)NC4
- GI50 (PC-3 prostate): 251 nM
- TGI (PC-3 prostate): 2950 nM
- GI50 (SF-539 CNS): 356 nM
- TGI (SF-539 CNS): 1420 nM
- GI50 (HS 578T breast): 248 nM
- TGI (HS 578T breast): 2060 nM
- GI50 (NCI-H23 lung): 212 nM
- TGI (NCI-H23 lung): 2360 nM
- GI50 (SK-MEL-28 melanoma): 203 nM
- TGI (SK-MEL-28 melanoma): 1260 nM
- GI50 (NCI-H226 lung): 320 nM
- TGI (NCI-H226 lung): 1720 nM
- GI50 (HT29 colon): 212 nM
- TGI (HT29 colon): 2090 nM
- GI50 (COLO 205 colon): 231 nM
- TGI (COLO 205 colon): 692 nM
- GI50 (786-0 renal): 312 nM
- TGI (786-0 renal): 1670 nM
- GI50 (SK-MEL-2 melanoma): 47.6 nM
- TGI (SK-MEL-2 melanoma): 1610 nM
- GI50 (A498 renal): 71.2 nM
- TGI (A498 renal): 585 nM
- GI50 (SN12C renal): 74 nM
- TGI (SN12C renal): 2150 nM
- GI50 (SK-OV-3 ovarian): 33.6 nM
- TGI (SK-OV-3 ovarian): 926 nM
- GI50 (HL-60(TB) leukemia): 868 nM
- GI50 (U251 CNS): 1020 nM
- TGI (U251 CNS): 3050 nM
- GI50 (HOP-92 NSCLC): 188 nM
- TGI (HOP-92 NSCLC): 880 nM
- GI50 (DU-145 prostate): 161 nM
- TGI (DU-145 prostate): 5900 nM
- GI50 (EKVX NSCLC): 1920 nM
- TGI (EKVX NSCLC): 7580 nM
- GI50 (MOLT-4 leukemia): 67.8 nM
- TGI (MOLT-4 leukemia): 825 nM
- GI50 (SNB-75 CNS): 185 nM
- TGI (SNB-75 CNS): 1040 nM
- GI50 (IGROV1 ovarian): 170 nM
- TGI (IGROV1 ovarian): 3280 nM
- GI50 (SNB-19 CNS): 1100 nM
- TGI (SNB-19 CNS): 4050 nM
- GI50 (HOP-62 NSCLC): 169 nM
- TGI (HOP-62 NSCLC): 1810 nM
- GI50 (MCF7 breast): 194 nM
- TGI (MCF7 breast): 4340 nM
- GI50 (ACHN renal): 36.8 nM
- TGI (ACHN renal): 3070 nM
- GI50 (NCI-H460 lung): 121 nM
- TGI (NCI-H460 lung): 1380 nM
- GI50 (CCRF-CEM leukemia): 321 nM
- TGI (CCRF-CEM leukemia): 1640 nM
- GI50 (CAKI-1 renal): 14.9 nM
- TGI (CAKI-1 renal): 217 nM
- GI50 (SF-268 CNS): 630 nM
